Measurements reported in patent US20080300258A1, “ANHYDROUS CIPROFLOXACIN HYDROCHLORIDE” (priority 2007, published 2008).

Details: eight weeks of storage at 40 degrees C., relative humidity 75%

water intake on storage: No water intake was observed
SMILES: O=C(O)c1cn(C2CC2)c2cc(N3CCNCC3)c(F)cc2c1=O [1-cyclopropyl-6-fluoro-1,4-dihydro-4-oxo-7-(1-piperazinyl)-3-quinolinecarboxylic acid]
decomposition on storage: no significant decomposition was observed
